Source: article PMC7684578, “Isopedopeptins A–H: Cationic Cyclic Lipodepsipeptides from Pedobacter cryoconitis UP508 Targeting WHO Top-Priority Carbapenem-Resistant Bacteria” (ACS Chemical Biology, 2020)
Converted amounts (≈) assume the structure as drawn. Starred links: 1 amine or outer side, 2 acyl side, 3 side chain; linkers in the order of their positions; H or OH if unused. Positions of bridges follow the written chain, without caps; N, C: chain ends. Non-standard residues stand in square brackets, D forms with d. Residues, ends and D or L forms follow the SMILES beside them. X4 = CC(C)CCC=CCCC[C@H](CC(=O)[*:1])O[*:2]; X6 = CC(C)CCCCC=CC[C@H](CC(=O)[*:1])O[*:2]; X5 = CC(C)CCCCCCC[C@H](CC(=O)[*:1])O[*:2]; X3 = CC(C)CCCCC[C@H](CC(=O)[*:1])O[*:2]; X7 = CCCCCCC=CC[C@H](CC(=O)[*:1])O[*:2]; X2 = CCCCCCC[C@H](CC(=O)[*:1])O[*:2]; Val(3-OH) = CC(C)(O)[C@H](N)C(=O)O; X1 = C/C=C(/N[*:1])C(=O)[*:2]; Dab = NCC[C@H](N)C(=O)O; Dap = NC[C@H](N)C(=O)O

Assays:
Assay in all cases: MIC, broth micro-dilution, primary panel
P. aeruginosa LMG6395T = format: cell-based, Pseudomonas aeruginosa; details: WT; for MIC: Pseudomonas aeruginosa, LMG6395T
Experimental: (§1) Isopedopeptin E (5): off-white solid; [α] D20 –36° (c 0.3 in methanol); UV (MeOH) λ max (log10 ε) 240 (3.8); 1H NMR (DMSO-d 6, 600 MHz), see Table S5; 13C NMR (DMSO-d 6, 150 MHz), see Table […]
(§2) Isopedopeptin F (6): off-white solid; [α] D20 –32° (c 0.05 in methanol); UV (MeOH) λ max (log10 ε) 240 (3.8); 1H NMR (DMSO-d 6, 600 MHz), see Table S6; 13C NMR (DMSO-d 6, 150 MHz), see Table […]
(§3) Isopedopeptin G (7): off-white solid; [α] D20 –49° (c 0.1 in methanol); UV (MeOH) λ max (log10 ε) 240 (4.0); 1H NMR (DMSO-d 6, 600 MHz), see Table S7; 13C NMR (DMSO-d 6, 150 MHz), see Table […]
(§4) Isopedopeptin H (8): off-white solid; [α] D20 –56° (c 0.2 in methanol); UV (MeOH) λ max (log10 ε) 240 (4.0); 1H NMR (DMSO-d 6, 600 MHz), see Table S8; 13C NMR (DMSO-d 6, 150 MHz), see Table […]
(§5) Minimal Inhibitory Concentration (MIC) against the primary panel of microorganisms.
(§6) The MIC for compounds 1–8 was measured by means of a broth micro-dilution method in 96-wells microtiter plates with the addition of E. coli LMG15862, LMG1041 T, E. cloacaeA. baumannii […]
(§7) H-29 and A. fumigatus J7, as test organisms. The test media were AM3 Broth (BD Difco Ltd) mixed with phosphate buffered saline (PBS, Amresco LLC, Solon, USA) in 1:4 ratio (E. coli, A. baumannii, E. cloacae, K. pneumoniae and P. aeruginosa), AM3 Broth mixed with PBS in 1:1 ratio (S. aureus), ME (A. fumigatus) and ISP2 (C. albicans). Prior to MIC determination, the cell concentration of tested bacterial/fungal pathogens was adjusted to ≅ 4 × 10^5 CFU/mL (acceptable range 2 – 6 × 10^5 CFU/mL). Cell concentration was confirmed by colony counting after diluting and plating the respective bacterial pathogen on VPA plates [VPA, 10 g Vegetable Peptone Broth (Oxoid Ltd., Basingstoke,UK), 15 g Bacto Agar (Difco Ltd, Tyrone) in 1 L deionised water] directly after each of MIC-tests. The cells of C. albicans were plated on ISP2 agar plates [ISP2, 15 g Bacto Agar (Difco Ltd) in 1 L deionised water] and respectively spores of A. fumigatus were plated on MEA plates.
(§8) Plates were, subsequently, incubated at 37 °C in the dark, and viable colonies counted after 16 to 24 h.
(§9) To estimate MIC values (concentration range between 0.05 and 50 µg/mL), solutions of the tested compounds (100, 10 and 1 and if needed 0.1 µg/mL in MeOH) were dispensed into wells of microtiter plate(s) and the solvent was evaporated in a fume-hood. Subsequently, suspensions of pathogen cells in the appropriate medium were dispensed to the wells of microtiter plates and the growth of pathogens were observed after 16 to 20 h of incubation at 37 °C in the dark. Positive controls were the respective pathogen cells suspended in untreated sterile media without addition of compounds(s) and negative controls were the media only. MIC values were defined as the lowest concentration of each compound with no visible growth of pathogen. All MIC tests were performed in triplicate and […]
(§10) MIC determination for compound 2 against an extended panel of bacterial strains.
(§11) Compound 2 was evaluated against a panel of Gram-negative bacteria (Hughes strain collection), including: A. baumannii ATCC 19606, wild-type; BM4454, multidrug-resistant clinical isolate; BM4652, efflux-defective derivative of BM4454; CH9622, colistin-resistant clinical isolate; E. coli ATCC 25922, wild-type; CH3130, efflux-defective ΔtolC mutant isogenic to ATCC 25922; D22, a drug-hypersensitive lpxC mutant of E. coli; CH3491, multidrug-resistant clinical isolate; CH9623 and CH9624, colistin-resistant clinical isolates carrying mcr-1; K. pneumoniae ATCC 13833, wild-type; […]
(§12) clinical isolate; CH9625 and CH9626, colistin-resistant clinical isolates; P. aeruginosa PAO1, wild-type; PAO750, efflux-defective mutant isogenic to PAO1. The in vitro antimicrobial activity of each compound was determined by measuring the MIC value using the broth micro-dilution technique in cation-adjusted Mueller-Hinton II broth (Becton-Dickinson, 212322) according to EUCAST and CLSI guidelines. Each compound prepared in MHII medium was dispensed into a 96-well round- […]

A. baumannii LMG1041T = format: cell-based; details: Acinetobacter baumannii, WT
Experimental: as §1, §2, §3, §4, §5, §6, §7, §8, §9, §10, §11, §12

A. fumigatus J7 = format: cell-based; details: Aspergillus fumigatus
Experimental: as §1, §2, §3, §4, §5, §6, §7, §8, §9, §10, §11, §12

B. cereus CCUG7414T = format: cell-based; details: Bacillus cereus
Experimental: as §1, §2, §3, §4, §5, §6, §7, §8, §9, §10, §11, §12

C. albicans H-29 = format: cell-based; details: Candida albicans, H29; WT
Experimental: as §1, §2, §3, §4, §5, §6, §7, §8, §9, §10, §11, §12

E. cloacae LMG2783T = format: cell-based; details: Enterobacter cloacae, WT
Experimental: as §1, §2, §3, §4, §5, §6, §7, §8, §9, §10, §11, §12

E. coli LMG15862 = format: cell-based; details: Escherichia coli, β-lactam.
Experimental: as §1, §2, §3, §4, §5, §6, §7, §8, §9, §10, §11, §12

S. aureus LMG15975 = format: cell-based; details: Staphylococcus aureus, LMG15975 / MRSA
Experimental: as §1, §2, §3, §4, §5, §6, §7, §8, §9, §10, §11, §12

| SMILES | MIC (P. aeruginosa LMG6395T) [µg/mL] | MIC (A. baumannii LMG1041T) [µg/mL] | MIC (A. fumigatus J7) [µg/mL] | MIC (B. cereus CCUG7414T) [µg/mL] | MIC (C. albicans H-29) [µg/mL] | MIC (E. cloacae LMG2783T) [µg/mL] | MIC (E. coli LMG15862) [µg/mL] | MIC (S. aureus LMG15975) [µg/mL] | MIC P. aeruginosa LMG6395T (P. aeruginosa LMG6395T) [µg/mL] |
| --- | --- | --- | --- | --- | --- | --- | --- | --- | --- |
| C/C=C1/NC(=O)[C@H](CCN)NC(=O)[C@H](CC(C)C)NC(=O)[C@H](CN)NC(=O)C[C@@H](CCCCCCC)OC(=O)[C@H](CC(=O)O)NC(=O)[C@H](C(C)C)NC(=O)[C@@H](Cc2ccccc2)NC(=O)[C@H](CN)NC(=O)[C@H]([C@@H](C)O)NC1=O [Compound 4, isopedopeptin D] ([Dap]L[Dab][X1]T[Dap][dF]VD; linker N-C via X2) | > 32 | 16 (≈ 14.5 µM) | > 32 | 32 (≈ 29.1 µM) | > 32 | 32 (≈ 29.1 µM) | 32 (≈ 29.1 µM) | > 32 |  |
| C/C=C1/NC(=O)[C@H](CCN)NC(=O)[C@H](CC(C)C)NC(=O)[C@H](CN)NC(=O)C[C@@H](CCCCCCCC(C)C)OC(=O)[C@H](CC(=O)O)NC(=O)[C@H](C(C)(C)O)NC(=O)[C@@H](Cc2ccccc2)NC(=O)[C@H](CN)NC(=O)[C@H]([C@@H](C)O)NC1=O [Compound 6, Isopedopeptin F] ([Dap]L[Dab][X1]T[Dap][dF][Val(3-OH)]D; linker N-C via X5) | 32 (≈ 27.6 µM) | 16 (≈ 13.8 µM) | > 32 | 32 (≈ 27.6 µM) | > 32 | 32 (≈ 27.6 µM) | 16 (≈ 13.8 µM) | 32 (≈ 27.6 µM) |  |
| C/C=C1/NC(=O)[C@H](CCN)NC(=O)[C@H](CC(C)C)NC(=O)[C@H](CN)NC(=O)C[C@@H](CCCCCC(C)C)OC(=O)[C@H](CC(=O)O)NC(=O)[C@H](C(C)C)NC(=O)[C@@H](Cc2ccccc2)NC(=O)[C@H](CN)NC(=O)[C@H]([C@@H](C)O)NC1=O [Compound 5, Isopedopeptin E] ([Dap]L[Dab][X1]T[Dap][dF]VD; linker N-C via X3) | 32 (≈ 28.7 µM) | 32 (≈ 28.7 µM) | > 32 | 16 (≈ 14.3 µM) | > 32 | > 32 | > 32 | > 32 |  |
| C/C=C1/NC(=O)[C@H](CCN)NC(=O)[C@H](CC(C)C)NC(=O)[C@H](CN)NC(=O)C[C@@H](CC=CCCCCC(C)C)OC(=O)[C@H](CC(=O)O)NC(=O)[C@H](C(C)C)NC(=O)[C@@H](Cc2ccccc2)NC(=O)[C@H](CN)NC(=O)[C@H]([C@@H](C)O)NC1=O [Compound 8, Isopedopeptin H] ([Dap]L[Dab][X1]T[Dap][dF]VD; linker N-C via X6) | 16 (≈ 14 µM) | 16 (≈ 14 µM) | > 32 | 32 (≈ 28 µM) | > 32 | 16 (≈ 14 µM) | 16 (≈ 14 µM) | 16 (≈ 14 µM) |  |
| C/C=C1/NC(=O)[C@H](CCN)NC(=O)[C@H](CC(C)C)NC(=O)[C@H](CN)NC(=O)C[C@@H](CCCC=CCCC(C)C)OC(=O)[C@H](CC(=O)O)NC(=O)[C@H](C(C)C)NC(=O)[C@@H](Cc2ccccc2)NC(=O)[C@H](CN)NC(=O)[C@H]([C@@H](C)O)NC1=O [Compound 7, Isopedopeptin G] ([Dap]L[Dab][X1]T[Dap][dF]VD; linker N-C via X4) | 8 to 16 (≈ 7.01 to 14 µM) | 8 (≈ 7.01 µM) | > 32 | 16 (≈ 14 µM) | > 32 | 16 (≈ 14 µM) | 8 (≈ 7.01 µM) | 16 (≈ 14 µM) | 8 (≈ 7.01 µM) |
| C/C=C1/NC(=O)[C@H](CCN)NC(=O)[C@H](CC(C)C)NC(=O)[C@H](CN)NC(=O)C[C@@H](CCCCCC(C)C)OC(=O)[C@H](CC(=O)O)NC(=O)[C@H](C(C)(C)O)NC(=O)[C@@H](Cc2ccccc2)NC(=O)[C@H](CN)NC(=O)[C@H]([C@@H](C)O)NC1=O [Compound 1, cyclo(3-hydroxy-9-methyldecanoyl-DAPA1-Leu-DABA-ABA-Thr-DAPA2-Phe-OHVal-Asp)] ([Dap]L[Dab][X1]T[Dap][dF][Val(3-OH)]D; linker N-C via X3) | 8 to 16 (≈ 7.07 to 14.1 µM) | 4 (≈ 3.54 µM) | > 32 | > 32 | 32 (≈ 28.3 µM) | 16 (≈ 14.1 µM) | 4 (≈ 3.54 µM) | > 32 | 16 (≈ 14.1 µM) |
| C/C=C1/NC(=O)[C@H](CCN)NC(=O)[C@H](CC(C)C)NC(=O)[C@H](CN)NC(=O)C[C@@H](CCCCCCC)OC(=O)[C@H](CC(=O)O)NC(=O)[C@H](C(C)(C)O)NC(=O)[C@@H](Cc2ccccc2)NC(=O)[C@H](CN)NC(=O)[C@H]([C@@H](C)O)NC1=O [Compound 2, isopedopeptin B] ([Dap]L[Dab][X1]T[Dap][dF][Val(3-OH)]D; linker N-C via X2) | 8 to 16 (≈ 7.16 to 14.3 µM) | 8 (≈ 7.16 µM) | > 32 | > 32 | 32 (≈ 28.6 µM) | 32 (≈ 28.6 µM) | 8 (≈ 7.16 µM) | 32 (≈ 28.6 µM) | 16 (≈ 14.3 µM) |
| C/C=C1/NC(=O)[C@H](CCN)NC(=O)[C@H](CC(C)C)NC(=O)[C@H](CN)NC(=O)C[C@@H](CC=CCCCCCC)OC(=O)[C@H](CC(=O)O)NC(=O)[C@H](C(C)(C)O)NC(=O)[C@@H](Cc2ccccc2)NC(=O)[C@H](CN)NC(=O)[C@H]([C@@H](C)O)NC1=O [Compound 3, isopedopeptin C] ([Dap]L[Dab][X1]T[Dap][dF][Val(3-OH)]D; linker N-C via X7) | 32 (≈ 28 µM) | 16 (≈ 14 µM) | > 32 | 32 (≈ 28 µM) | 32 (≈ 28 µM) | 32 (≈ 28 µM) | 16 (≈ 14 µM) | > 32 |  |
